The target of assay [1] is T1, human Kv1.3 voltage-gated K+ channel (Homo sapiens, UniProt P22001).
T1 construct: host or cells: CHO-DUKX
Put plainly: cell-based. Conditions: inhibition of thallium flux, CHO-DUKX cells with human Kv1.3; read-out: IC50.

The target in the next assay is T2, Kv1.3 (Homo sapiens, UniProt P22001).
T2 construct: expressed in transfected cells; host or cells: Chinese Hamster Ovary (CHO)
In words: cell-based. The conditions noted are these: CHO cells, whole-cell patch clamp; read-out: Potency IC50 (nM) Kv1.3. On the technique in general: In patch-clamp work, channel activity is measured electrically.

The target of a further assay is Rat whole blood (Rattus norvegicus, UniProt P15384).
Chain of Rat whole blood (P15384 whole entry): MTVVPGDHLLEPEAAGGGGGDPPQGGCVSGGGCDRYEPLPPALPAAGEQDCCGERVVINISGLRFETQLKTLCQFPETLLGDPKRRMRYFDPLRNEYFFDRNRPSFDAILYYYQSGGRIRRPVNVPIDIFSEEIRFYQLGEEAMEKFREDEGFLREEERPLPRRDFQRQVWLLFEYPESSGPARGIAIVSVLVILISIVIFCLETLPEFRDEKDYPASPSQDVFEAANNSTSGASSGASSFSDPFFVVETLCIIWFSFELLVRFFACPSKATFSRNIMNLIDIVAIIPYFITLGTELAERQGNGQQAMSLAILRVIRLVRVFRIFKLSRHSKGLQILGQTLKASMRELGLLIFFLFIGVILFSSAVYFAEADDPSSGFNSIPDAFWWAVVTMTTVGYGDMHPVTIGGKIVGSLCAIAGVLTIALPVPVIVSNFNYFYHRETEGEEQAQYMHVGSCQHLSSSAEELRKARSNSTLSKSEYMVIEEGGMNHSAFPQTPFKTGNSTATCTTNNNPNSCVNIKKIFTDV

pIC50: −log10 of the molar value. Like-named read-outs stand apart in the source and are kept apart here. Bridge positions count the residues as written; N and C are the ends. Square brackets hold non-standard residues; d marks the D form. Peptide text beside a SMILES is read from it. Nle = CCCC[C@H](N)C(=O)O

T1 sequence (P22001 whole entry): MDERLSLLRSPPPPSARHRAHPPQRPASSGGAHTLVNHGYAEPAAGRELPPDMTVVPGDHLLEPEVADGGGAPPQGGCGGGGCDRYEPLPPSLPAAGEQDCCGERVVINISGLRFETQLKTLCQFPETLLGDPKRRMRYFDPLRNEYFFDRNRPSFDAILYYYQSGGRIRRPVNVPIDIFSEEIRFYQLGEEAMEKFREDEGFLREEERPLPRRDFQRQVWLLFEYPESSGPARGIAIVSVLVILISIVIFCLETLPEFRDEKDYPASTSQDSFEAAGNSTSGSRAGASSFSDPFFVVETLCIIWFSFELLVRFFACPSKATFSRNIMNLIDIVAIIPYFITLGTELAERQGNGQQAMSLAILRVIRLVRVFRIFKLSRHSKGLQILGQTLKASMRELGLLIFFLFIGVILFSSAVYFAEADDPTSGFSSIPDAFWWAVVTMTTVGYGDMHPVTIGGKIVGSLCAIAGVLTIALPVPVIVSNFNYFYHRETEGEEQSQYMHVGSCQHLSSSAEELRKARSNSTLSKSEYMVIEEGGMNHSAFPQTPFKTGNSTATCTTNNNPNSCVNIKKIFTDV
T2 sequence (P22001 whole entry): as above

In general, pIC50 refers to the negative decadic logarithm of the IC50, by convention in mol/L. As usually defined, the IC50 is the concentration needed to halve the response being measured. In the case of `CCCC[C@@H]1NC(=O)[C@@H]2CSSC[C@H](NC(=O)[C@H](CCCNC(=N)N)NC(=O)[C@H](CCCC)NC(=O)[C@H](CC(=O)O)NC(=O)[C@H](CCCC)NC(=O)[C@@H](N)Cc3c[nH]cn3)C(=O)N[C@@H](CO)C(=O)N[C@@H](C)C(=O)N[C@@H](CO)C(=O)N[C@@H](C(C)C)C(=O)N[C@@H](CCC(=O)O)C(=O)N[C@H]3CSSC[C@H](NC(=O)[C@H](CCCCN)NC(=O)[C@H](CCCCN)NC(=O)[C@H](CC(N)=O)NC1=O)C(=O)N[C@@H](CCCCN)C(=O)N[C@H](C(=O)N[C@@H](Cc1ccc(O)cc1)C(=O)N1CCC[C@H]1C(=O)N[C@@H](CCCNC(=N)N)C(N)=O)CSSC[C@H](NC(=O)[C@H](CCCCN)NC(=O)[C@H](CCC(N)=O)NC(=O)[C@H](CCCCN)NC3=O)C(=O)N[C@@H](CC(C)C)C(=O)N[C@@H](CCCCN)C(=O)N[C@@H](C)C(=O)N[C@@H]([C@@H](C)CC)C(=O)NCC(=O)N[C@@H](CO)C(=O)N[C@@H]([C@@H](C)CC)C(=O)N[C@@H](Cc1ccccc1)C(=O)NCC(=O)N[C@@H](CCCCN)C(=O)N2` [Compound 64] (H-H[Nle]D[Nle]RCSASVECKQKCLKAIGSIFGKC[Nle]NKKCKCYPR-NH2; disulfide 6-27, 12-32, 16-34), the negative-log IC50 (pIC50) in assay [1] is 9.92. The IC50 at Kv1.3 was 0.25 nM.
In the same order, the values of `CC[C@H](C)[C@@H]1NC(=O)[C@H](C)NC(=O)[C@H](CCCCN)NC(=O)[C@H](CCCNC(=N)N)NC(=O)[C@@H]2CSSC[C@@H](C(=O)N[C@@H](Cc3ccc(O)cc3)C(=O)N3CCC[C@H]3C(=O)N[C@@H](CCCNC(=N)N)C(N)=O)NC(=O)[C@H](CCCCN)NC(=O)[C@@H]3CSSC[C@H](NC(=O)[C@H](CCC(=O)O)NC(=O)[C@H](C(C)C)NC(=O)[C@H](CO)NC(=O)[C@H](C)NC(=O)[C@H](CO)NC(=O)[C@@H](NC(=O)[C@H](CCCNC(=N)N)NC(=O)[C@H](CCSC)NC(=O)[C@H](CC(=O)O)NC(=O)[C@H](CCSC)NC(=O)[C@@H](N)CC(N)=O)CSSC[C@H](NC(=O)[C@H](CCCCN)NC(=O)CNC(=O)[C@H](Cc4ccccc4)NC(=O)[C@H]([C@@H](C)CC)NC(=O)[C@H](CO)NC(=O)CNC1=O)C(=O)N[C@@H](CCSC)C(=O)N[C@@H](CC(N)=O)C(=O)N[C@@H](CCCCN)C(=O)N[C@@H](CCCCN)C(=O)N3)C(=O)N[C@@H](CCCCN)C(=O)N[C@@H](CCC(N)=O)C(=O)N[C@@H](CCCCN)C(=O)N2` [Compound 51] (H-NMDMRCSASVECKQKCRKAIGSIFGKCMNKKCKCYPR-NH2; disulfide 6-27, 12-32, 16-34) are 9.96 and 0.25 nM.
The matching figures for `CCCC[C@H](NC(=O)[C@H](CC(=O)O)NC(=O)[C@H](CCCC)NC(=O)[C@@H](N)CO)C(=O)N[C@@H](CCCNC(=N)N)C(=O)N[C@H]1CSSC[C@@H]2NC(=O)[C@H](CCCCN)NC(=O)CNC(=O)[C@H](Cc3ccccc3)NC(=O)[C@H]([C@@H](C)CC)NC(=O)[C@H](CO)NC(=O)CNC(=O)[C@H]([C@@H](C)CC)NC(=O)[C@H](C)NC(=O)[C@H](C)NC(=O)[C@H](CC(C)C)NC(=O)[C@@H]3CSSC[C@@H](C(=O)N[C@@H](Cc4ccc(O)cc4)C(=O)N4CCC[C@H]4C(=O)N[C@@H](CCCNC(=N)N)C(N)=O)NC(=O)[C@H](CCCCN)NC(=O)[C@H](CSSC[C@H](NC(=O)[C@H](CCC(=O)O)NC(=O)[C@H](C(C)C)NC(=O)[C@H](CO)NC(=O)[C@H](C)NC(=O)[C@H](CO)NC1=O)C(=O)N[C@@H](C)C(=O)N[C@@H](CCC(N)=O)C(=O)N[C@@H](CCCCN)C(=O)N3)NC(=O)[C@H](CCCCN)NC(=O)[C@H](CCCCN)NC(=O)[C@H](CC(N)=O)NC(=O)[C@H](CCSC)NC2=O` [Compound 80] (H-S[Nle]D[Nle]RCSASVECAQKCLAAIGSIFGKCMNKKCKCYPR-NH2; disulfide 6-27, 12-32, 16-34): 9.82 and 0.16 nM.
Take `CCCC[C@H](NC(=O)[C@H](CC(=O)O)NC(=O)[C@H](CCCC)NC(=O)[C@@H](N)CC(N)=O)C(=O)N[C@@H](CCCNC(=N)N)C(=O)N[C@H]1CSSC[C@@H]2NC(=O)[C@H](CCCCN)NC(=O)CNC(=O)[C@H](Cc3ccccc3)NC(=O)[C@H]([C@@H](C)CC)NC(=O)[C@H](CO)NC(=O)CNC(=O)[C@H]([C@@H](C)CC)NC(=O)[C@H](C)NC(=O)[C@H](CCCCN)NC(=O)[C@H](CC(C)C)NC(=O)[C@@H]3CSSC[C@@H](C(=O)N[C@@H](Cc4ccc(O)cc4)C(=O)N4CCC[C@H]4C(=O)N[C@@H](CCCNC(=N)N)C(N)=O)NC(=O)[C@H](CCCCN)NC(=O)[C@H](CSSC[C@H](NC(=O)[C@H](CCC(=O)O)NC(=O)[C@H](C(C)C)NC(=O)[C@H](CO)NC(=O)[C@H](C)NC(=O)[C@H](CO)NC1=O)C(=O)N[C@@H](CCCCN)C(=O)N[C@@H](CCC(N)=O)C(=O)N[C@@H](CCCCN)C(=O)N3)NC(=O)[C@H](CCCCN)NC(=O)[C@H](CCCCN)NC(=O)[C@H](CC(N)=O)NC(=O)[C@H](CCSC)NC2=O` [Compound 39] (H-N[Nle]D[Nle]RCSASVECKQKCLKAIGSIFGKCMNKKCKCYPR-NH2; disulfide 6-27, 12-32, 16-34): the pIC50 in assay [1] is 9.96. Also, on Kv1.3, the 50% inhibitory concentration (IC50) is 0.15 nM.
In the same order, the values of `CCCC[C@@H]1NC(=O)[C@@H]2CSSC[C@H](NC(=O)[C@H](CCCNC(=N)N)NC(=O)[C@H](CCCC)NC(=O)[C@H](CC(=O)O)NC(=O)[C@H](CCCC)NC(=O)[C@@H](N)Cc3ccc(O)cc3)C(=O)N[C@@H](CO)C(=O)N[C@@H](C)C(=O)N[C@@H](CO)C(=O)N[C@@H](C(C)C)C(=O)N[C@@H](CCC(=O)O)C(=O)N[C@H]3CSSC[C@H](NC(=O)[C@H](CCCCN)NC(=O)[C@H](CCCCN)NC(=O)[C@H](CC(N)=O)NC1=O)C(=O)N[C@@H](CCCCN)C(=O)N[C@H](C(=O)N[C@@H](Cc1ccc(O)cc1)C(=O)N1CCC[C@H]1C(=O)N[C@@H](CCCNC(=N)N)C(N)=O)CSSC[C@H](NC(=O)[C@H](CCCCN)NC(=O)[C@H](CCC(N)=O)NC(=O)[C@H](CCCCN)NC3=O)C(=O)N[C@@H](CC(C)C)C(=O)N[C@@H](CCCCN)C(=O)N[C@@H](C)C(=O)N[C@@H]([C@@H](C)CC)C(=O)NCC(=O)N[C@@H](CO)C(=O)N[C@@H]([C@@H](C)CC)C(=O)N[C@@H](Cc1ccccc1)C(=O)NCC(=O)N[C@@H](CCCCN)C(=O)N2` [Compound 65] (H-Y[Nle]D[Nle]RCSASVECKQKCLKAIGSIFGKC[Nle]NKKCKCYPR-NH2; disulfide 6-27, 12-32, 16-34) are 9.92 and 0.14 nM.
In the same order, the values of `CC[C@H](C)[C@@H]1NC(=O)[C@H](Cc2ccc(O)cc2)NC(=O)[C@H](CCCCN)NC(=O)[C@H](CC(C)C)NC(=O)[C@@H]2CSSC[C@@H](C(=O)N[C@@H](Cc3ccc(O)cc3)C(=O)N3CCC[C@H]3C(=O)N[C@@H](CCCNC(=N)N)C(N)=O)NC(=O)[C@H](CCCCN)NC(=O)[C@@H]3CSSC[C@H](NC(=O)[C@H](CCC(=O)O)NC(=O)[C@H](C(C)C)NC(=O)[C@H](CO)NC(=O)[C@H](C)NC(=O)[C@H](CO)NC(=O)[C@@H](NC(=O)[C@H](CCCNC(=N)N)NC(=O)[C@H](CCSC)NC(=O)[C@H](CC(=O)O)NC(=O)[C@H](CCSC)NC(=O)[C@@H](N)CC(N)=O)CSSC[C@H](NC(=O)[C@H](CCCCN)NC(=O)CNC(=O)[C@H](Cc4ccccc4)NC(=O)[C@H]([C@@H](C)CC)NC(=O)[C@H](CO)NC(=O)CNC1=O)C(=O)N[C@@H](CCSC)C(=O)N[C@@H](CC(N)=O)C(=O)N[C@@H](CCCCN)C(=O)N[C@@H](CCCCN)C(=O)N3)C(=O)N[C@@H](CCCCN)C(=O)N[C@@H](CCC(N)=O)C(=O)N[C@@H](CCCCN)C(=O)N2` [Compound 55] (H-NMDMRCSASVECKQKCLKYIGSIFGKCMNKKCKCYPR-NH2; disulfide 6-27, 12-32, 16-34) are 9.92 and 0.12 nM.
In the same order, the values of `CC[C@H](C)[C@@H]1NC(=O)[C@H](C)NC(=O)[C@H](CCCCN)NC(=O)[C@H](Cc2ccc(O)cc2)NC(=O)[C@@H]2CSSC[C@@H](C(=O)N[C@@H](Cc3ccc(O)cc3)C(=O)N3CCC[C@H]3C(=O)N[C@@H](CCCNC(=N)N)C(N)=O)NC(=O)[C@H](CCCCN)NC(=O)[C@@H]3CSSC[C@H](NC(=O)[C@H](CCC(=O)O)NC(=O)[C@H](C(C)C)NC(=O)[C@H](CO)NC(=O)[C@H](C)NC(=O)[C@H](CO)NC(=O)[C@@H](NC(=O)[C@H](CCCNC(=N)N)NC(=O)[C@H](CCSC)NC(=O)[C@H](CC(=O)O)NC(=O)[C@H](CCSC)NC(=O)[C@@H](N)CC(N)=O)CSSC[C@H](NC(=O)[C@H](CCCCN)NC(=O)CNC(=O)[C@H](Cc4ccccc4)NC(=O)[C@H]([C@@H](C)CC)NC(=O)[C@H](CO)NC(=O)CNC1=O)C(=O)N[C@@H](CCSC)C(=O)N[C@@H](CC(N)=O)C(=O)N[C@@H](CCCCN)C(=O)N[C@@H](CCCCN)C(=O)N3)C(=O)N[C@@H](CCCCN)C(=O)N[C@@H](CCC(N)=O)C(=O)N[C@@H](CCCCN)C(=O)N2` [Compound 50] (H-NMDMRCSASVECKQKCYKAIGSIFGKCMNKKCKCYPR-NH2; disulfide 6-27, 12-32, 16-34) are 9.80 and 0.27 nM.
In the case of `CCCC[C@H](NC(=O)[C@@H]1CCCN1)C(=O)N[C@@H](CCC(=O)O)C(=O)N[C@@H](CCCC)C(=O)N[C@@H](CCCNC(=N)N)C(=O)N[C@H]1CSSC[C@@H]2NC(=O)[C@H](CCCCN)NC(=O)CNC(=O)[C@H](Cc3ccccc3)NC(=O)[C@H]([C@@H](C)CC)NC(=O)[C@H](CO)NC(=O)CNC(=O)[C@H]([C@@H](C)CC)NC(=O)[C@H](C)NC(=O)[C@H](CC(C)C)NC(=O)[C@H](CC(C)C)NC(=O)[C@@H]3CSSC[C@@H](C(=O)N[C@@H](Cc4ccc(O)cc4)C(=O)N4CCC[C@H]4C(=O)N[C@@H](CCCNC(=N)N)C(=O)O)NC(=O)[C@H](CCCCN)NC(=O)[C@H](CSSC[C@H](NC(=O)[C@H](CCC(=O)O)NC(=O)[C@H](C(C)C)NC(=O)[C@H](CO)NC(=O)[C@H](C)NC(=O)[C@H](CO)NC1=O)C(=O)N[C@@H](CCCCN)C(=O)N[C@@H](CCC(N)=O)C(=O)N[C@@H](CCCCN)C(=O)N3)NC(=O)[C@H](CCCCN)NC(=O)[C@H](CCCCN)NC(=O)[C@H](CC(N)=O)NC(=O)[C@H](CCCC)NC2=O` [Compound 99] (H-P[Nle]E[Nle]RCSASVECKQKCLLAIGSIFGKC[Nle]NKKCKCYPR-OH; disulfide 6-27, 12-32, 16-34), the pIC50 in assay [1] is 9.47; against Rat whole blood, ≥ 9.00; on Rat whole blood (inhibition of IL-17A release, thapsigargin, 24 Hr, at least 2 replicates), 9.30.

For the origin of these results see US11780893B2, “Kv1.3 blockers” (Zealand Pharma A/S, priority 2019, dated 2023).
